{"source": "ChEMBL document CHEMBL4811289", "about": "“Antibacterial and Cytotoxic Phenyltetracenoid Polyketides from Streptomyces morookaense” (J Nat Prod, 2021)", "key": {"Enterococcus faecium [1]": {"tested_on": "Enterococcus faecium", "assay": "Antibacterial activity against vancomycin-resistant Enterococcus faecium incubated for 6 to 8 hrs by MABA", "format": "functional", "details": "time 6-8 hrs"}, "Enterococcus faecium [2]": {"tested_on": "Enterococcus faecium", "assay": "Antibacterial activity against vancomycin-sensitive Enterococcus faecium incubated for 6 to 8 hrs by MABA", "format": "functional", "details": "time 6-8 hrs"}, "MCF7": {"tested_on": "MCF7", "assay": "Cytotoxicity against human MCF7 cells assessed as reduction in cell viability after 72 hrs by MTT assay", "format": "functional, cell-based", "details": "Homo sapiens, MCF7, 72 h"}, "HepG2": {"tested_on": "HepG2", "assay": "Cytotoxicity against human HepG2 cells assessed as reduction in cell viability after 72 hrs by MTT assay", "format": "functional, cell-based", "details": "Homo sapiens, HepG2, 72 h"}, "A549": {"tested_on": "A549", "assay": "Cytotoxicity against human A549 cells assessed as reduction in cell viability after 72 hrs by MTT assay", "format": "functional, cell-based", "details": "Homo sapiens, A549, 72 h"}, "Vero": {"tested_on": "Vero", "assay": "Cytotoxicity against African green monkey Vero cells assessed as reduction in cell viability after 72 hrs by MTT assay", "format": "cell-based, Chlorocebus sabaeus", "details": "Chlorocebus sabaeus, Vero, 72 h"}, "Staphylococcus aureus [3]": {"tested_on": "Staphylococcus aureus", "assay": "Antibacterial activity against methicillin-sensitive Staphylococcus aureus incubated for 6 to 8 hrs by MABA", "format": "functional", "details": "time 6-8 hrs"}, "HeLa": {"tested_on": "HeLa", "assay": "Cytotoxicity against human HeLa cells assessed as reduction in cell viability after 72 hrs by MTT assay", "format": "functional, cell-based", "details": "Homo sapiens, HeLa, 72 h"}, "Staphylococcus aureus [4]": {"tested_on": "Staphylococcus aureus", "assay": "Antibacterial activity against methicillin-resistant Staphylococcus aureus ATCC 6548 incubated for 6 to 8 hrs by MABA", "format": "functional", "details": "time 6-8 hrs"}}, "note": "Structures can show the parent of a compound that is named as a salt.", "data": [{"smiles": "COc1cc(C)c(-c2cc(OC)cc3cc4c(c(O)c23)C(=O)c2c(cc(O)c(Cl)c2O)C4(C)C)c(O)c1", "values": [{"measurement": "MIC", "setting": "Enterococcus faecium [1]", "result": 5, "unit": "µg/mL"}, {"measurement": "MIC", "setting": "Enterococcus faecium [2]", "result": 2.5, "unit": "µg/mL"}, {"measurement": "IC50", "setting": "MCF7", "result": 24.3, "unit": "µM"}, {"measurement": "IC50", "setting": "HepG2", "result": 12.1, "unit": "µM"}, {"measurement": "IC50", "setting": "A549", "result": 5.6, "unit": "µM"}, {"measurement": "IC50", "setting": "Vero", "result": 18.9, "unit": "µM"}, {"measurement": "MIC", "setting": "Staphylococcus aureus [3]", "result": 2.5, "unit": "µg/mL"}, {"measurement": "IC50", "setting": "HeLa", "result": 7, "unit": "µM"}, {"measurement": "MIC", "setting": "Staphylococcus aureus [4]", "result": 2.5, "unit": "µg/mL"}]}, {"smiles": "COc1cc(C)c(-c2cc(O)cc3cc4c(c(O)c23)C(=O)c2c(cc(OC)c(Cl)c2OC)C4(C)C)c(O)c1", "values": [{"measurement": "MIC", "setting": "Enterococcus faecium [1]", "result": 2.5, "unit": "µg/mL"}, {"measurement": "MIC", "setting": "Enterococcus faecium [2]", "result": 2.5, "unit": "µg/mL"}, {"measurement": "IC50", "setting": "MCF7", "result": 5, "unit": "µM"}, {"measurement": "IC50", "setting": "HepG2", "result": 5.7, "unit": "µM"}, {"measurement": "IC50", "setting": "A549", "result": 3.3, "unit": "µM"}, {"measurement": "IC50", "setting": "Vero", "result": 3, "unit": "µM"}, {"measurement": "MIC", "setting": "Staphylococcus aureus [3]", "result": 2.5, "unit": "µg/mL"}, {"measurement": "IC50", "setting": "HeLa", "result": 3.9, "unit": "µM"}, {"measurement": "MIC", "setting": "Staphylococcus aureus [4]", "result": 2.5, "unit": "µg/mL"}]}, {"smiles": "COc1cc2c(c(O)c1Cl)C(=O)c1c(cc3cc(O)cc(-c4c(C)c(OC)c(OC)c(Cl)c4O)c3c1O)C2(C)C", "values": [{"measurement": "MIC", "setting": "Enterococcus faecium [1]", "result": 5, "unit": "µg/mL"}, {"measurement": "MIC", "setting": "Enterococcus faecium [2]", "result": 2.5, "unit": "µg/mL"}, {"measurement": "IC50", "setting": "MCF7", "result": 17.8, "unit": "µM"}, {"measurement": "IC50", "setting": "HepG2", "result": 9.9, "unit": "µM"}, {"measurement": "IC50", "setting": "A549", "result": 9.1, "unit": "µM"}, {"measurement": "IC50", "setting": "Vero", "result": 14.5, "unit": "µM"}, {"measurement": "MIC", "setting": "Staphylococcus aureus [3]", "result": 1.25, "unit": "µg/mL"}, {"measurement": "IC50", "setting": "HeLa", "result": 7.2, "unit": "µM"}, {"measurement": "MIC", "setting": "Staphylococcus aureus [4]", "result": 1.25, "unit": "µg/mL"}]}, {"smiles": "CN[C@H](CC(C)C)C(=O)N[C@H]1C(=O)N[C@@H](CC(N)=O)C(=O)N[C@H]2C(=O)N[C@H]3C(=O)N[C@H](C(=O)N[C@H](C(=O)O)c4cc(O)cc(O)c4-c4cc3ccc4O)[C@H](O)c3ccc(c(Cl)c3)Oc3cc2cc(c3O[C@@H]2O[C@H](CO)[C@@H](O)[C@H](O)[C@H]2O[C@H]2C[C@](C)(N)[C@H](O)[C@H](C)O2)Oc2ccc(cc2Cl)[C@H]1O", "note": "[VANCOMYCIN]", "values": [{"measurement": "MIC", "setting": "Enterococcus faecium [1]", "result": "> 40", "unit": "µg/mL"}, {"measurement": "MIC", "setting": "Enterococcus faecium [2]", "result": 1.25, "unit": "µg/mL"}, {"measurement": "MIC", "setting": "Staphylococcus aureus [4]", "result": 0.63, "unit": "µg/mL"}]}, {"smiles": "COc1cccc2c1C(=O)c1c(O)c3c(c(O)c1C2=O)C[C@@](O)(C(=O)CO)C[C@@H]3O[C@H]1C[C@H](N)[C@H](O)[C@H](C)O1", "note": "[DOXORUBICIN HYDROCHLORIDE]", "values": [{"measurement": "IC50", "setting": "MCF7", "result": 1.02, "unit": "µM"}, {"measurement": "IC50", "setting": "HepG2", "result": 0.8, "unit": "µM"}, {"measurement": "IC50", "setting": "A549", "result": 0.69, "unit": "µM"}, {"measurement": "IC50", "setting": "HeLa", "result": 0.31, "unit": "µM"}]}, {"smiles": "COc1cc(C)c(-c2cc(OC)c(Cl)c3cc4c(c(O)c23)C(=O)c2c(cc(O)c(Cl)c2O)C4(C)C)c(O)c1", "values": [{"measurement": "MIC", "setting": "Enterococcus faecium [1]", "result": 2.5, "unit": "µg/mL"}, {"measurement": "MIC", "setting": "Enterococcus faecium [2]", "result": 2.5, "unit": "µg/mL"}, {"measurement": "IC50", "setting": "MCF7", "result": 7.6, "unit": "µM"}, {"measurement": "IC50", "setting": "HepG2", "result": 7.2, "unit": "µM"}, {"measurement": "IC50", "setting": "A549", "result": 4.8, "unit": "µM"}, {"measurement": "IC50", "setting": "Vero", "result": 4.8, "unit": "µM"}, {"measurement": "MIC", "setting": "Staphylococcus aureus [3]", "result": 1.25, "unit": "µg/mL"}, {"measurement": "IC50", "setting": "HeLa", "result": 6, "unit": "µM"}, {"measurement": "MIC", "setting": "Staphylococcus aureus [4]", "result": 1.25, "unit": "µg/mL"}]}, {"smiles": "COc1cc(C)c(-c2cc(OC)cc3cc4c(c(O)c23)C(=O)c2c(O)cc(O)cc2C4(C)C)c(O)c1", "values": [{"measurement": "MIC", "setting": "Enterococcus faecium [1]", "result": 1.25, "unit": "µg/mL"}, {"measurement": "MIC", "setting": "Enterococcus faecium [2]", "result": 1.25, "unit": "µg/mL"}, {"measurement": "IC50", "setting": "MCF7", "result": 7.1, "unit": "µM"}, {"measurement": "IC50", "setting": "HepG2", "result": 4.4, "unit": "µM"}, {"measurement": "IC50", "setting": "A549", "result": 3.3, "unit": "µM"}, {"measurement": "IC50", "setting": "Vero", "result": 6.4, "unit": "µM"}, {"measurement": "MIC", "setting": "Staphylococcus aureus [3]", "result": 1.25, "unit": "µg/mL"}, {"measurement": "IC50", "setting": "HeLa", "result": 4.7, "unit": "µM"}, {"measurement": "MIC", "setting": "Staphylococcus aureus [4]", "result": 1.25, "unit": "µg/mL"}]}, {"smiles": "COc1cc2c(c(O)c1Cl)C(=O)c1c(cc3c(Cl)c(OC)cc(-c4c(O)cc(O)c(Cl)c4C)c3c1O)C2(C)C", "values": [{"measurement": "MIC", "setting": "Enterococcus faecium [1]", "result": 5, "unit": "µg/mL"}, {"measurement": "MIC", "setting": "Enterococcus faecium [2]", "result": 1.25, "unit": "µg/mL"}, {"measurement": "IC50", "setting": "MCF7", "result": 10.1, "unit": "µM"}, {"measurement": "IC50", "setting": "HepG2", "result": 6.2, "unit": "µM"}, {"measurement": "IC50", "setting": "A549", "result": 5.2, "unit": "µM"}, {"measurement": "IC50", "setting": "Vero", "result": 7.9, "unit": "µM"}, {"measurement": "MIC", "setting": "Staphylococcus aureus [3]", "result": 2.5, "unit": "µg/mL"}, {"measurement": "IC50", "setting": "HeLa", "result": 6.3, "unit": "µM"}, {"measurement": "MIC", "setting": "Staphylococcus aureus [4]", "result": 2.5, "unit": "µg/mL"}]}]}
